Assay results published in patent US20190322643A1 (Georgia State University Research Foundation, Inc., priority 2016, published 2019).
Like-named read-outs stand apart in the source and are kept apart here.

How the values were obtained:
MDA-MB-231 = experiment: Cytotoxicity / anti-proliferation assay (CCK-8), MDA-MB-231; type: cell-based; conditions: Homo sapiens
Procedure: (§1) A549, MDA-MB-231, HCT-8, MCF-7, and HEK293 cells were seeded at 8000-10000 cells (100 μl) in white 96-well plates and pre-incubate the plate for 24 h under standard cell culture conditions, respectively. Then the cells were exposed to the different inhibitors with various concentrations for 72 h. Finally, 10 μl of CCK-8 kit solution was added to each well and incubated for 3-4 hours under standard cell culture conditions, and the 96 well plates were measured the absorbance at 450 nm using Perkin-Elmer Wallac Victor ^3V 1420 multi label plate reader (Perkin-Elmer, Wellesley, USA). EC50s were calculated using GraphPad Prizm statistical package with sigmoidal variable slope dose response curve fit.
(§2) Cell anti-proliferation assays were performed to determine the toxicity of these inhibitors. Several cell lines (MDA-MB-231, MCF-7, A549 and HCT-8) were incubated and then treated with varying concentrations of the inhibitors for 72 h, respectively. […] These compounds were further evaluated against the control cell line HEK293 to test their toxicity with a non-cancerous cell line.

HEK293 = experiment: Toxicity assay (CCK-8) in control non-cancerous cell line; type: cell-based
Procedure: as §1, §2

[1] = molecular target: T1, Mouse histone methyltransferase G9a (969-1263) (Mus musculus, UniProt Q9Z148); experiment: MALDI-TOF methylation study of G9a inhibition; type: biochemical; conditions: inhibitors at 5 μM concentration for 30 min
T1 construct: The 6His-sumo mG9a (969-1263) protein was purified using the following procedure; 6His-sumo (cleaved yes); made in house; host or cells: Escherichia coli BL21 (DE3)
T1 sequence (Q9Z148 969-1263): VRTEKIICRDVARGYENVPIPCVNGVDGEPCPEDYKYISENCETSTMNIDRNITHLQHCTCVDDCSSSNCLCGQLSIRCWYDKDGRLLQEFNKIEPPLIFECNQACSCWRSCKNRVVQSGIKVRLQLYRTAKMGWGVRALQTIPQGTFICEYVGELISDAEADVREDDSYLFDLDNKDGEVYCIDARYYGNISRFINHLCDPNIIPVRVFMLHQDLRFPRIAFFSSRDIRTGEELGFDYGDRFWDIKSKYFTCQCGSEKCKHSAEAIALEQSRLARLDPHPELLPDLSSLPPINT
Procedure: Mouse histone methyltransferase G9a (969-1263) cDNA was amplified from the cDNA of BALB/c mouse thymus, and the fragment was sub-cloned into a vector with a 6His-sumo tag. […] The 6His-sumo mG9a (969-1263) protein was purified using the following procedure: harvested cell pellet was re-suspended in 20 mM Tris (pH 8.0), 500 mM NaCl, 0.1% β-mercaptoethanol, and 1 mM PMSF. Cells were lysed by sonicating for 15 seconds with 6 second intervals for a total time of 15 minutes on an ice bath. […] The 6His-sumo tag was cleaved from the column by adding Ubiquitin-like-specific protease 1 (ULP-1) at 4° C. for 12 hours. Wash buffer was then run through the Ni^+ column again and the elution buffer collected. Subsequently, advanced protein purification was done by HiTrap Q HP sequential Superdex 200 10/300 GL. Elute of every step was analyzed by SDS PAGE, stained by Coomassie brilliant blue (CBB). […] The reaction was incubated at room temperature for 30 min, and stopped by TFA. 1 μL of the sample was mixed with CHCA matrix and m/z peaks were obtained at reflection positive mode. The results of mass spectrum were analyzed using the Bruker flex analysis software and data processing was carried out as described below. MALDI-TOF based experiments were performed according to the protocol developed by Chang et al. (Nat. Struct. Mol. Biol. 2009, 16, 312-317). MALDI spectra were collected using Bruker flex control software and analyzed by flex analysis. After labelling each cluster peaks of H3K9Me0, H3K9Me1 and H3K9Me2 for all of the tested concentrations, area under the cluster (AUC) were extracted by using the same flex analysis software. % abundance of each peak was calculated by following formula: A=% Abundance of (H3K9Me0)=area of H3K9Me0/(area of H3K9Me0+area of H3K9Me1+area of H3K9Me2) B=% Abundance of (H3K9Me1)=area of H3K9Me1/(area of H3K9Me0+area of H3K9Me1+area of H3K9Me2) C=% Abundance of (H3K9Me2)=area of H3K9Me2/(area of H3K9Me0+area of H3K9Me1+area of H3K9Me2). This was repeated for each spectra (3 multiples for each samples). […] Finally % inhibition was found by subtracting % MA(i) from 100. […] A biochemical assay using MALDI-TOF was used to visualize the effects of the synthesized compounds on G9a enzymatic activity. […] Struct. Mol. Biol. 2009, 16, 312-317).

G9a = molecular target: T2, G9a (Homo sapiens, UniProt Q96KQ7); experiment: H3K9Me2 cell immunofluorescence in-cell Western (ICW) assay; type: cell-based; conditions: MDA-MB-231 cell line, 48 h
T2 construct: endogenous in cells; host or cells: MDA-MB-231
T2 sequence (Q96KQ7 1-1210): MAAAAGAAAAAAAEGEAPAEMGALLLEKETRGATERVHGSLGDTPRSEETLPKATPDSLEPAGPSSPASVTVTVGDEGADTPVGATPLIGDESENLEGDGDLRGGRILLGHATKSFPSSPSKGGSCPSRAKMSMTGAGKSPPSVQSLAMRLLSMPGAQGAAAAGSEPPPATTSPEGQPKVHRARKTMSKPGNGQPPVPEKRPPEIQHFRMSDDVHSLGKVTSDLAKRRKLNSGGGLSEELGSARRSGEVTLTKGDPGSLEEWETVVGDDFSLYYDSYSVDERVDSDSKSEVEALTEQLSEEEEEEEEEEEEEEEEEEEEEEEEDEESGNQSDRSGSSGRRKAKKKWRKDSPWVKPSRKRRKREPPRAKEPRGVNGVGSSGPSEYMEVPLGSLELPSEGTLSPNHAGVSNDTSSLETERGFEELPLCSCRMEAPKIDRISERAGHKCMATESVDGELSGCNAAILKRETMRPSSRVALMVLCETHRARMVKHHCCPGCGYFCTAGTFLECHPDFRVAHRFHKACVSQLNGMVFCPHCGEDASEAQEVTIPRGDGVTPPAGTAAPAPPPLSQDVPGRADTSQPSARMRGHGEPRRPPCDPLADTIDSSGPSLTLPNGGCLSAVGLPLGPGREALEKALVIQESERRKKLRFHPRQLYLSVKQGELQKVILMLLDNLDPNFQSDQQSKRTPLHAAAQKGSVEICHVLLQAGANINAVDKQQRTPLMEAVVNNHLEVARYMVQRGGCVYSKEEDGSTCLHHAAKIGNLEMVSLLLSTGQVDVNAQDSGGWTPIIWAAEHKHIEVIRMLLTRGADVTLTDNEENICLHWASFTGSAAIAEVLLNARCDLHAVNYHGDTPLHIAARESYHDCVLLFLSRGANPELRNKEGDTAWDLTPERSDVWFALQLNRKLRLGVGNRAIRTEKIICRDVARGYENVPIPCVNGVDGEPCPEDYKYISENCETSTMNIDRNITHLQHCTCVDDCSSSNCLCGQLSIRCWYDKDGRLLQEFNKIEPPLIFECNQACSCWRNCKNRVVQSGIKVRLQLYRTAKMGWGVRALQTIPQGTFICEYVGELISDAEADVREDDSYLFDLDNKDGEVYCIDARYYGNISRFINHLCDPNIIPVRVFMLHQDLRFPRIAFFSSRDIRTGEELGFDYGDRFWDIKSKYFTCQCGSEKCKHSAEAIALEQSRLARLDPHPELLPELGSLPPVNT
Procedure: After the incubation, the media was removed and 100 μl fixation and permeabilization solution (2% formaldehyde in PBS) for fixation was added for 30 min. And then use 200 μl 0.1% Triton X100 in PBS washing solution to wash (allow wash to shake on a plate shaker for 5 minutes). After five washes, cells were blocked for 1 h with 150 μl blocking buffer to each well (1% BSA in PBS) (allow blocking at RT with moderate shaking on a plate shaker). After 1 h, remove the blocking buffer from the blocking step and add primary antibody in blocking buffer to cover the bottom of each well. […] The plates were read on an Odyssey CLX (LiCor) scanner at both 800 nm (H3K9me2 signal) and 700 nm (cell tag 700 stain signal) channels. IC50s were calculated using GraphPad Prizm statistical package with sigmoidal variable slope dose response curve fit.

A549 = experiment: Cytotoxicity / anti-proliferation assay (CCK-8), A549; type: cell-based; conditions: Homo sapiens, 72 h, CCK-8 kit
Procedure: (§3) Then the cells were exposed to the different inhibitors with various concentrations for 72 h. […] EC50s were calculated using GraphPad Prizm statistical package with sigmoidal variable slope dose response curve fit.
(§4) Cell anti-proliferation assays were performed to determine the toxicity of these inhibitors. […] These compounds were further evaluated against the control cell line HEK293 to test their toxicity with a non-cancerous cell line.

HCT-8 = experiment: Cytotoxicity / anti-proliferation assay (CCK-8), HCT-8; type: cell-based; conditions: Homo sapiens, 72 h, CCK-8 kit
Procedure: as §3, §4

HDAC [2] = experiment: Cell based homogenous HDAC assay, Hela; conditions: read-out: IC50-HDAC Hela; Hela cells, mean ± SD of triplicate
Procedure: (§5) After 24 h, 9 μl inhibitors with different concentration were added to the HeLa cells and incubation was continued for 3 h under cell culture conditions. After this treatment period, 10 μl of a 2 mM stock solution of the substrate Boc-K(Ac)-AMC was added into the 96 well plates with Hela cells and inhibitors. […] A549 and K562 cell lines used the same method, respectively. IC50s were calculated using GraphPad Prizm statistical package with sigmoidal variable slope dose response curve fit.
(§6) Boc-K(Ac)-AMC was used as a cell-permeable HDAC substrate, as after deacetylation it is cleaved by trypsin to release the florescent 7-amino-4-methylcoumarin (AMC).

HDAC [3] = experiment: Cell based homogenous HDAC assay, A549; conditions: read-out: IC50-HDAC A549; A549 cells, mean ± SD of triplicate
Procedure: as §5, §6

HDAC [4] = experiment: Cell based homogenous HDAC assay, K562; conditions: read-out: IC50-HDAC K562; K562 cells, mean ± SD of triplicate
Procedure: as §5, §6

[5] = alone or as 1:1 mixture, 1-100 μM, read-out: EC50 value

| Structure (SMILES) | EC50 (MDA-MB-231; 72 h, CCK-8 kit, read-out: EC50 MDA-MB-231) | EC50 (MDA-MB-231; [5]) | toxicity in normal cell line (HEK293) | inhibition at 5 µM [1] | IC50 (G9a) | EC50 (A549) | EC50 (HCT-8) | IC50 (HDAC [2]) | IC50 (HDAC [3]) | IC50 (HDAC [4]) |
| --- | --- | --- | --- | --- | --- | --- | --- | --- | --- | --- |
| O=C(CCCCCCC(=O)Nc1ccccc1)NO [SAHA, N-hydroxy-N′-phenyl-octanediamide] | 2.87 ± 0.84 µM | 2.87 ± 0.84 µM | toxic | – | – | – | – | – | – | – |
| COc1cc2nc(NCCNC(=O)CCCCCCC(=O)NO)nc(NC3CCN(C)CC3)c2cc1OC [Compound 4, N1-(2-((6,7-dimethoxy-4-((1-methylpiperidin-4-yl)amino)quinazolin-2-yl)amino)ethyl)-N8-hydroxyoctanediamide] | – | – | – | 27 ± 12.2% | 96.7 ± 1.68 µM | > 100 µM | > 100 µM | > 100 µM | > 100 µM | > 100 µM |
| COc1cc2nc(NCCNC(=O)CCCCCC(=O)NO)nc(NC3CCN(C)CC3)c2cc1OC [Compound 5, N1-(2-((6,7-dimethoxy-4-((1-methylpiperidin-4-yl)amino)quinazolin-2-yl)amino)ethyl)-N7-hydroxyheptanediamide] | – | – | – | 65 ± 1.95% | > 100 µM | > 100 µM | > 100 µM | > 100 µM | > 100 µM | > 100 µM |
| COc1cc2nc(NCCNC(=O)CCCC(=O)NO)nc(NC3CCN(C(C)C)CC3)c2cc1OC [Compound 7a, N1-hydroxy-N5-(2-((4-((1-isopropylpiperidin-4-yl)amino)-6,7-dimethoxyquinazolin-2-yl)amino)ethyl)glutaramide] | – | – | – | 15 ± 15.7% | 54.6 ± 3.05 µM | > 100 µM | > 100 µM | > 100 µM | > 100 µM | > 100 µM |
| COc1cc2nc(NCCNC(=O)CCCCCCC(=O)NO)nc(NC3CCN(C(C)C)CC3)c2cc1OC [Compound 4a, N1-hydroxy-N8-(2-((4-((1-isopropylpiperidin-4-yl)amino)-6,7-dimethoxyquinazolin-2-yl)amino)ethyl)octanediamide] | – | – | – | 11.2 ± 3.68% | 74.2 ± 1.94 µM | > 100 µM | > 100 µM | > 100 µM | > 100 µM | > 100 µM |
| COc1cc2nc(N3CCCN(C)CC3)nc(NC3CCN(Cc4ccccc4)CC3)c2cc1OC.Cl.Cl.Cl [BIX-01294, 2-(hexahydro-4-methyl-1H-1,4-diazepin-1-yl)-6,7-dimethoxy-N-[1-(phenylmethyl)-4-piperidinyl]-4-quinazolinamine trihydrochloride, reference compound] | – | 2.16 ± 0.88 µM | toxic | 77.7 ± 5.73% | – | – | – | > 100 µM | > 100 µM | > 100 µM |
| COc1cc2nc(NCCNC(=O)CCCCCC(=O)NO)nc(NC3CCN(C(C)C)CC3)c2cc1OC [Compound 5a, N1-hydroxy-N7-(2-((4-((1-isopropylpiperidin-4-yl)amino)-6,7-dimethoxyquinazolin-2-yl)amino)ethyl)heptanediamide] | – | – | – | 47.5 ± 9.32% | 66.6 ± 3.98 µM | > 100 µM | > 100 µM | > 100 µM | > 100 µM | > 100 µM |
| COc1cc2c(NC3CCN(C(C)C)CC3)nc(N3CCCN(C)CC3)nc2cc1OCCCCCCC(=O)NO [Compound 26, N-hydroxy-7-((4-((1-isopropylpiperidin-4-yl)amino)-6-methoxy-2-(4-methyl-1,4-diazepan-1-yl)quinazolin-7-yl)oxy)heptanamide] | – | – | – | 35.6 ± 0.88% | 27.4 ± 3.59 µM | > 100 µM | > 100 µM | > 100 µM | > 100 µM | > 100 µM |
